Data: patent US20050265944A1, “Carbohydrate-based anti-wrinkle and tissue remodelling compounds” (Ultraceuticals R&D Limited, priority 2002, published 2005)

Tests used:
skin of normal rats = assay: Intradermal injection, cell migration / cellularity at the site of administration (histology); assay type: in vivo, female Fischer rats; settings: 50 microlitre intradermal, 48 hours; for cellularity at the site of injection: versus saline
Procedure: The effects of intradermally injected glucose, maltose and maltopentaose on cell migration into the site of administration in the skin of normal rats. Healthy, specific pathogen free female Fischer rats 10-12 weeks of age (n=3) were anesthetised with ether and hair on their backs was clipped (electric miniclippers) from two areas of approximately 1.5 cm×4 cm either side of and paralleling the spinal column. The test and control substances were injected into the centre of 1 square cm defined areas. Substances were administered in such a fashion that each was injected into 4 different positions at least once in order to control for any possible anatomical positioning effect. Agents were dissolved in normal saline at a concentration of 100 mg/ml and sterile filtered prior to administration. Fifty microlitre injection volumes were given intradermally using 30 gauge needles and control injections consisted of 50 microlitres of sterile normal saline. Animals were sacrificed 48 hours following injection and injection sites were subjected to histological sectioning followed by microscopic examination.
The effects of intradermally injected dextran and maltopentaose on cell migration into the site of administration in the skin of normal rats. In a similar experiment to that outlined in Example 1 above, female Fischer rats, 10-12 weeks of age (n=3) were treated with 50 microlitre volumes of i) 50 mg/ml of clinical grade dextran (MW 71,400); ii) 50 mg/ml maltopentaose; or iii) normal saline using a 30 gauge needle. Skin injection sites were submitted for histological sectioning and examined microscopically 48 hours following injection.
The effects of intradermally injected maltotriose and maltopentaose on cell migration into the site of administration in the skin of normal rats. In a similar experiment to that outlined in Example 1 above, female Fischer rats, 10-12 weeks of age (n=2) were treated with 50 microlitre volumes of i) 100 mg/ml of maltotriose; ii) 100 mg/ml maltopentaose; or iii) normal saline using a 30 gauge needle. Skin injection sites were submitted for histological sectioning and examined microscopically 48 hours following injection.
The effects of intradermally injected maltopentaose and 1,4-beta-mannohexaose on cell migration into the site of administration in the skin of normal rats. In a similar experiment to that outlined in Example 1 above, female Fischer rats, 10-12 weeks of age (n=2) were treated with 50 microlitre volumes of i) 100 mg/ml of maltopentaose; ii) 100 mg/ml of 1,4-beta-mannohexaose; or iii) normal saline using a 30 gauge needle. Skin injection sites were submitted for histological sectioning and examined microscopically 48 hours following injection.
The effects of intradermally injected amylose and the O-phosphorylated mannan isolated from Pichia holstii on cell migration into the site of administration in the skin of normal rats. In a similar experiment to that outlined in Example 1 above, female Fischer rats, 10-12 weeks of age (n=2) were treated with 50 microlitre volumes of i) 50 mg/ml of amylose; ii) 50 mg/ml of the O-phosphorylated mannan from Pichia holstii; or iii) normal saline using a 30 gauge needle. Skin injection sites were submitted for histological sectioning and examined microscopically 48 hours following injection. […]

cutaneous tissue = assay: Dermal application: cellularity and collagen deposition in cutaneous tissue (general statements); assay type: in vivo; settings: general statement in the description
[1] = tested on: skin (dermis) fibroblasts; assay: Intradermal injection into abdominal skin, cellularity, collagen (Gomori's stain) and fibroblasts (prolyl 4-hydroxylase immunohistochemistry); assay type: in vivo, female Wistar rats; settings: Example 7, 50 mg/ml in sterile saline, 50 microliters intradermal; for dermal collagen (Gomori's staining) / fibroblast-like cells / cellular infiltrate in the dermis: 48 hours and 7 days; for fibroblast-like cells / cellular infiltrate in the dermis: H&E
Procedure: Following ether anaesthesia, hair was clipped from skin on both sides of the abdominal region of 8-10 week old female Wistar rats. Intradermal injections (via a 30 gauge needle) of either sterile saline (50 microliters), PM5 (50 microliters, 50 mg/ml in sterile saline) or amylopectin (50 microliters, 50 mg/ml in sterile saline) were placed in the centre of 1 cm^2 defined areas of abdominal skin. Forty-eight hours and 7 days after injection, groups of animals were euthanased by CO2 overdose and skin samples were examined following the preparation of 6 μm histological sections that were stained with H&E and Gomori's (collagen) stain. In addition, immunohistochemistry using a mouse anti-rat prolyl 4-hydroxylase monoclonal antibody (Chemicon International Inc) in paraffin embedded skin sections was used to identify fibroblasts within the dermis.

[2] = Example 1, 100 mg/ml in normal saline

For `OC[C@H]1O[C@H](O[C@H]2[C@H](O)[C@@H](O)C(O)O[C@@H]2CO)[C@H](O)[C@@H](O)[C@@H]1O` (mixture of isomers) [maltose, reference compound], the “cellularity at the site of injection” value (skin of normal rats; [2]) was “neither saline, glucose nor maltose had any effect on cellularity”.
`OC[C@H]1O[C@@H](O[C@H]2[C@H](O)[C@H](O)[C@H](O[C@H]3[C@H](O)[C@H](O)[C@H](O[C@H]4[C@H](O)[C@H](O)[C@H](O[C@H]5[C@H](O)[C@H](O)C(O)O[C@@H]5CO)O[C@@H]4CO)O[C@@H]3CO)O[C@@H]2CO)[C@@H](O)[C@@H](O)[C@@H]1O` (stereo partly drawn) [1,4-beta-D-mannopentaose] was tested, and the “increase in cellularity and collagen deposition in cutaneous tissue / tissue remodelling effect” value (cutaneous tissue) was “effective tissue remodelling agents and effective anti-wrinkle compounds”.
In the case of `OC[C@H]1O[C@@H](O[C@H]2[C@H](O)[C@H](O)[C@H](O[C@H]3[C@H](O)[C@H](O)[C@H](O[C@H]4[C@H](O)[C@H](O)[C@H](O[C@H]5[C@H](O)[C@H](O)[C@H](O[C@H]6[C@H](O)[C@H](O)C(O)O[C@@H]6CO)O[C@@H]5CO)O[C@@H]4CO)O[C@@H]3CO)O[C@@H]2CO)[C@@H](O)[C@@H](O)[C@@H]1O` (stereo partly drawn) [1,4-beta-mannohexaose], the “increase in cellularity and collagen deposition in cutaneous tissue / tissue remodelling effect” value (cutaneous tissue) is reported as “effective tissue remodelling agents and effective anti-wrinkle compounds”, the “cellularity, 1,4-beta-mannohexaose injection sites versus maltopentaose sites” value (skin of normal rats; Example 4, 100 mg/ml) is reported as “the results were not significantly different” and the “cellularity at the site of injection” value (skin of normal rats; Example 4, 100 mg/ml) is reported as “increases in cellularity”.
In the case of `O=P(O)(O)OC[C@H]1O[C@H](O[C@@H]2[C@H](O)[C@@H](O[C@@H]3[C@H](O)[C@@H](O[C@@H]4[C@H](O)[C@@H](O[C@H]5[C@@H](O)[C@H](O)[C@@H](CO)O[C@@H]5O)O[C@H](CO)[C@H]4O)O[C@H](CO)[C@H]3O)O[C@H](CO)[C@H]2O)[C@@H](O)[C@@H](O)[C@@H]1O` [PM5, 6-O-phospho-alpha-D-mannose-(1,3)-alpha-D-mannose-(1,3)-alpha-D-mannose-(1,3)-alpha-D-mannose-(1,2)-alpha-D-mannose], the “increase in cellularity and collagen deposition in cutaneous tissue / tissue remodelling effect” value (cutaneous tissue) is reported as “effective tissue remodelling agents and effective anti-wrinkle compounds”, the “dermal collagen (Gomori's staining)” value [1] is reported as “collagen deposited in the lower dermal layers” and the “fibroblast-like cells / cellular infiltrate in the dermis” value [1] is reported as “increase in fibroblast-like cells”.
amylopectin was tested, and the “increase in cellularity and collagen deposition in cutaneous tissue / tissue remodelling effect” value (cutaneous tissue) was “particularly effective in this regard”, the “fibroblast numbers (immunohistochemical staining, anti-rat prolyl 4-hydroxylase)” value [1] was “influx of fibroblastoid cells” and the “dermal collagen (Gomori's staining)” value [1] was “increase in dermal collagen”. For the same compound, the “fibroblast-like cells / cellular infiltrate in the dermis” value [1] was “marked “fibroblast-like” cellular infiltrate in both the upper and lower regions of the dermis” and the “fibroblast numbers (immunohistochemical staining, anti-rat prolyl 4-hydroxylase)” value ([1]; listed as Amylopectin) was “increase in dermal collagen (as indicated Gomori's staining) (FIG. 3), and fibroblast numbers”.
With amylose the “cellularity at the site of injection” value (skin of normal rats; Example 5, 50 mg/ml) was “increases in cellularity”.
dextran [reference compound] was tested, and the “cellularity at the site of injection” value (skin of normal rats; Example 2, 50 mg/ml) was “increased cellularity was noticed in the dextran injection sites but this was not statistically significantly different from the saline injected sites”.
With maltoheptaose the “increase in cellularity and collagen deposition in cutaneous tissue / tissue remodelling effect” value (cutaneous tissue) was “effective tissue remodelling agents and effective anti-wrinkle compounds”.
With maltohexaose the “increase in cellularity and collagen deposition in cutaneous tissue / tissue remodelling effect” value (cutaneous tissue) was “effective tissue remodelling agents and effective anti-wrinkle compounds”.
With maltopentaose the “increase in cellularity and collagen deposition in cutaneous tissue / tissue remodelling effect” value (cutaneous tissue) was “effective tissue remodelling agents and effective anti-wrinkle compounds”, the “cellularity at the site of injection” value (skin of normal rats; [2]) was “significant increase in cellularity (P=0.001) versus saline” and the “cellularity at the site of injection” value (skin of normal rats; Example 2, 50 mg/ml) was “clear and significant difference in cellularity versus saline”. The “cellularity at the site of injection” value (skin of normal rats; Example 3, 100 mg/ml) was “clear and significant difference in cellularity versus saline” and the “cellularity at the site of injection” value (skin of normal rats; Example 4, 100 mg/ml) was “increases in cellularity”.
maltotriose [reference compound] was tested, and the “cellularity at the site of injection” value (skin of normal rats; Example 3, 100 mg/ml) was “no increase in cellularity”.
